Tested on: CN0375-F725-PDC KRAS spheroid viability
Assay: Anticancer human tumor CN0375-F725-PDC patient-derived colon carcinoma cell line growth inhibition [KRAS2]
Settings: spheroids with HUVEC and MSC; for IC50: curve of first compound; for viability, T/C: stronger effect = lower value
Summary of the method: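 Combination screen of spheroid viability in tumor-cell co-cultures with endothelial (HUVEC) and mesenchymal stem cell stroma. Each agent was tested in half-log dilutions, topping at clinical Cmax or at 10 microM without a known Cmax.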

[1] = second compound 0.1 µM, first compound 0.01 µM
[2] = second compound 0.1 µM, first compound 0.0316 µM
[3] = second compound 0.1 µM, first compound 0.1 µM
[4] = second compound 0.1 µM, first compound 0.316 µM
[5] = second compound 0.1 µM, first compound 1 µM
[6] = second compound 0.1 µM, first compound 3.16 µM
[7] = second compound 0.316 µM, first compound 0.01 µM
[8] = second compound 0.316 µM, first compound 0.0316 µM
[9] = second compound 0.316 µM, first compound 0.1 µM
[10] = second compound 0.316 µM, first compound 0.316 µM
[11] = second compound 0.316 µM, first compound 1 µM
[12] = second compound 0.316 µM, first compound 3.16 µM
[13] = second compound 1 µM, first compound 0.01 µM
[14] = second compound 1 µM, first compound 0.0316 µM
[15] = second compound 1 µM, first compound 0.1 µM
[16] = second compound 1 µM, first compound 0.316 µM
[17] = second compound 1 µM, first compound 1 µM
[18] = second compound 1 µM, first compound 3.16 µM
[19] = second compound 3.16 µM, first compound 0.01 µM
[20] = second compound 3.16 µM, first compound 0.0316 µM
[21] = second compound 3.16 µM, first compound 0.1 µM
[22] = second compound 3.16 µM, first compound 0.316 µM
[23] = second compound 3.16 µM, first compound 1 µM
[24] = second compound 3.16 µM, first compound 3.16 µM
[25] = second compound 10 µM, first compound 0.0316 µM
[26] = second compound 10 µM, first compound 0.1 µM
[27] = second compound 10 µM, first compound 0.316 µM
[28] = second compound 10 µM, first compound 1 µM
[29] = second compound 10 µM, first compound 3.16 µM
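Note: spheroids exposed to agents for 7 days.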

## CC1COCCN1c1cc(-c2ccnn2C)c2ccnc(-c3ccn[nH]3)c2n1 (stereo not given) + CNCc1ccccc1-c1csc(C(C)Nc2nc(C)nc3cc(OC)c(OC)cc23)c1
Second compound 0.1 µM
  IC50: > 3160 nM
Second compound 0.316 µM
  IC50: 3100 nM
Second compound 1 µM
  IC50: 127 nM
Second compound 3.16 µM
  IC50: < 10 nM
Second compound 10 µM
  IC50: < 10 nM
[1]
  viability, T/C: 97.8%
[2]
  viability, T/C: 88.5%
[3]
  viability, T/C: 80.7%
[4]
  viability, T/C: 76.2%
[5]
  viability, T/C: 68%
[6]
  viability, T/C: 52.1%
[7]
  viability, T/C: 92%
[8]
  viability, T/C: 89.7%
[9]
  viability, T/C: 74.1%
[10]
  viability, T/C: 70%
[11]
  viability, T/C: 59.4%
[12]
  viability, T/C: 49.5%
[13]
  viability, T/C: 63.5%
[14]
  viability, T/C: 64.3%
[15]
  viability, T/C: 44.1%
[16]
  viability, T/C: 45.1%
[17]
  viability, T/C: 39%
[18]
  viability, T/C: 23.5%
[19]
  viability, T/C: 0.32%
[20]
  viability, T/C: 0.28%
[21]
  viability, T/C: 0.36%
[22]
  viability, T/C: 0.41%
[23]
  viability, T/C: 0.44%
[24]
  viability, T/C: 0.54%
Second compound 10 µM, first compound 0.01 µM
  viability, T/C: 0.45%
[25]
  viability, T/C: 0.24%
[26]
  viability, T/C: 0.19%
[27]
  viability, T/C: 0.24%
[28]
  viability, T/C: 0.24%
[29]
  viability, T/C: 0.21%

## CN(C)C/C=C/C(=O)Nc1cc2c(Nc3ccc(F)c(Cl)c3)ncnc2cc1O[C@H]1CCOC1 + C=CC(=O)N1CCN(c2nc(OCC3CCCN3C)nc3c2CCN(c2cccc4cccc(C)c24)C3)CC1CC#N
Second compound 0.0316 µM
  IC50: > 100 nM
Second compound 0.1 µM
  IC50: > 100 nM
Second compound 0.316 µM
  IC50: > 100 nM
Second compound 1 µM
  IC50: > 100 nM
Second compound 3.16 µM
  IC50: < 0.316 nM
Second compound 0.0316 µM, first compound 0.000316 µM
  viability, T/C: 107%
Second compound 0.0316 µM, first compound 0.001 µM
  viability, T/C: 94.9%
Second compound 0.0316 µM, first compound 0.00316 µM
  viability, T/C: 88.8%
Second compound 0.0316 µM, first compound 0.01 µM
  viability, T/C: 84.8%
Second compound 0.0316 µM, first compound 0.0316 µM
  viability, T/C: 82.7%
Second compound 0.0316 µM, first compound 0.1 µM
  viability, T/C: 76.4%
Second compound 0.1 µM, first compound 0.000316 µM
  viability, T/C: 105%
Second compound 0.1 µM, first compound 0.001 µM
  viability, T/C: 98.6%
Second compound 0.1 µM, first compound 0.00316 µM
  viability, T/C: 88%
[1]
  viability, T/C: 87.7%
[2]
  viability, T/C: 80%
[3]
  viability, T/C: 77.5%
Second compound 0.316 µM, first compound 0.000316 µM
  viability, T/C: 102%
Second compound 0.316 µM, first compound 0.001 µM
  viability, T/C: 101%
Second compound 0.316 µM, first compound 0.00316 µM
  viability, T/C: 84.2%
[7]
  viability, T/C: 81.5%
[8]
  viability, T/C: 73.4%
[9]
  viability, T/C: 76.7%
Second compound 1 µM, first compound 0.000316 µM
  viability, T/C: 90.6%
Second compound 1 µM, first compound 0.001 µM
  viability, T/C: 96.7%
Second compound 1 µM, first compound 0.00316 µM
  viability, T/C: 83.4%
[13]
  viability, T/C: 75.9%
[14]
  viability, T/C: 75.6%
[15]
  viability, T/C: 74.1%
Second compound 3.16 µM, first compound 0.000316 µM
  viability, T/C: 30.9%
Second compound 3.16 µM, first compound 0.001 µM
  viability, T/C: 24.6%
Second compound 3.16 µM, first compound 0.00316 µM
  viability, T/C: 8.56%
[19]
  viability, T/C: 9.52%
[20]
  viability, T/C: 10.6%
[21]
  viability, T/C: 10.4%

## Cn1nccc1Nc1nccc(-c2cc3c(s2)C(C)(C)N(CCN2CCOCC2)C3=O)n1 + CNCc1ccccc1-c1csc(C(C)Nc2nc(C)nc3cc(OC)c(OC)cc23)c1
Second compound 0.1 µM
  IC50: 2790 nM
Second compound 0.316 µM
  IC50: 1180 nM
Second compound 1 µM
  IC50: 77.7 nM
Second compound 3.16 µM
  IC50: < 31.6 nM
Second compound 10 µM
  IC50: < 31.6 nM
[2]
  viability, T/C: 98%
[3]
  viability, T/C: 85.6%
[4]
  viability, T/C: 71.1%
[5]
  viability, T/C: 61.9%
[6]
  viability, T/C: 48.8%
Second compound 0.1 µM, first compound 10 µM
  viability, T/C: 37.2%
[8]
  viability, T/C: 86.5%
[9]
  viability, T/C: 80.8%
[10]
  viability, T/C: 64.7%
[11]
  viability, T/C: 53%
[12]
  viability, T/C: 39.4%
Second compound 0.316 µM, first compound 10 µM
  viability, T/C: 33.2%
[14]
  viability, T/C: 57.4%
[15]
  viability, T/C: 53%
[16]
  viability, T/C: 25.3%
[17]
  viability, T/C: 25.9%
[18]
  viability, T/C: 7.98%
Second compound 1 µM, first compound 10 µM
  viability, T/C: 3.51%
[20]
  viability, T/C: 0.61%
[21]
  viability, T/C: 0.29%
[22]
  viability, T/C: 0.39%
[23]
  viability, T/C: 0.2%
[24]
  viability, T/C: 0.2%
Second compound 3.16 µM, first compound 10 µM
  viability, T/C: 0.21%
[25]
  viability, T/C: 0.28%
[26]
  viability, T/C: 0.25%
[27]
  viability, T/C: 0.17%
[28]
  viability, T/C: 0.26%
[29]
  viability, T/C: 1.05%
Second compound 10 µM, first compound 10 µM
  viability, T/C: 0.49%

Source: PubChem BioAssay AID1963860 (Molecular Pharmacology Branch, DTP, NCI, 2024)
